Consider 61 molecules from patent publication US10189843B2, “Fused pyrazole derivative having autotaxin inhibitory activity” (The University of Tokyo, priority 2014, dated 2019).

The experiment addresses T1, Human autotaxin enzyme (Homo sapiens, UniProt Q13822).
T1 construct: purchased R&D System
Briefly: Evaluation of autotaxin inhibitor, Method C (18:0 Lyso PC substrate, choline assay, Resorufin fluorescence). The format is biochemical. As to conditions: Method C (Test Example 3), read-out: Inhibitory activity (enzyme inhibitory activity, IC50). As to the method: Test Example 3 (Method C) Evaluation of Autotaxin Inhibitor
Solution B containing 100 mM Tris-HCl buffer (pH7.5), 150 mM NaCl, 5 mM MgCl2, and 0.05% Triton X-100 was prepared. Human autotaxin enzyme (purchased from R&D System) was diluted with Solution B, and 2.5 μl of which was added to a solution of test compound in DMSO. Furthermore, 2.5 μl of 200 μM 18:0 Lyso PC (purchased from Avanti Polar Lipids) in Solution B was added and allowed to react at room temperature for 2 hours. After completion of the reaction, 15 μl of the coline assay reagent (100 mM Tris-HCl buffer (pH7.5), 5 mM MgCl2, 77 μg/ml coline oxidase, 10 μg/ml peroxydase, 25 μM 10-acetyl-3,7-dihydroxyphenoxazine, and excess autotaxin inhibitor) was added and allowed to react at room temperature for 20 minutes. The fluorescent dye Resorufin, which was produced by the reaction, was detected. The fluorescence was detected using ViewLux (PerkinElmer, Inc.) with a excitation wavelength of 531 nm and a fluorescence wavelength of 598 nm.
The percent inhibition of the test compound was calculated by assuming the sample with no test compound as 0% inhibition and the sample with no enzyme as 100% inhibition, and the percent inhibitions at different concentrations of the test compound were plotted to obtain a concentration-dependent curve.

Each structure is given as a SMILES string.

The term IC50 denotes the concentration needed to halve the response being measured. As for `CCOC(=O)CN1C(=O)c2cc(-c3ccc(Cl)cc3)nn2[C@@H]2CCC[C@@H]21` [Compound I-0010], the concentration for half-maximal inhibition (IC50) was no less than 1000 nM. `CCCCCC1CN(CC(=O)N2CCCC(CO)C2)C(=O)c2cc(-c3ccc(Cl)cc3)nn21` (stereo not shown) [Compound I-0089]: the IC50 was 10 to 100 nM.

As to `CCCCCC1CN(CC(=O)Nc2ccccc2CC(=O)O)C(=O)c2cc(-c3ccc(Cl)cc3)nn21` (stereo not shown) [Compound I-0067], the IC50 lay in the range of 100 to 1000 nM. For `CCCCCC1CN(Cc2ccc(C)cc2)C(=O)c2cc(-c3ccc(Cl)cc3)nn21` (stereo not shown) [Compound I-0130], the IC50 lay in the range of 100 to 1000 nM.

On to `C[C@H]1CN(Cc2cccc(OCCCN(C)C)c2)C(=O)c2cc(-c3ccc(Cl)cc3)nn21` [Compound I-0166], for which the concentration for half-maximal inhibition (IC50) is no less than 1000 nM. With `CC(=O)Nc1cc(Cl)ccc1-c1cc2n(n1)[C@@H](C)CN(C[C@H]1CNC(=O)O1)C2=O` [Compound I-0316], the IC50 lay within 10 to 100 nM. Consider `CCCCC1CN(Cc2ccc(C#N)cc2)C(=O)c2cc(-c3ccc(Cl)cc3NC(C)=O)nn21` (stereo not shown) [Compound I-0189], for which the IC50 lay in the range of 10 to 100 nM. Regarding `C[C@H]1CN(CC(=O)N(C)CCC#N)C(=O)c2cc(-c3ccc(C#N)cc3NC(=O)C3CC3)nn21` [Compound I-0350], the IC50 is less than 10 nM. `CCCCCC1CN(CC(=O)N2CCC[C@H]2C)C(=O)c2cc(-c3ccc(Cl)cc3)nn21` (stereo partly shown) [Compound I-0117]: the IC50 lay in the range of 100 to 1000 nM. For the molecule `CCCCC1CN(CNC(=O)CO)C(=O)c2cc(-c3ccc(Cl)cc3)nn21` (stereo not shown) [Compound I-0290], the half-inhibitory concentration (IC50) fell in the range of 100 to 1000 nM. Consider `C[C@H]1CN(CC(=O)N(C)CCC#N)C(=O)c2cc(-c3ccc(C#N)cc3NC(=O)C(C)(C)C)nn21` [Compound I-0359], for which the concentration for half-maximal inhibition (IC50) is 10 to 100 nM.

Regarding `CCCCC1CN(Cc2ccc(C#N)cc2)C(=O)c2cc(-c3ccc(Cl)cn3)nn21` (stereo not shown) [Compound I-0277], the IC50 was in the range of 100 to 1000 nM. On to `CCCCC1CN(Cc2ccc(C#N)cc2)C(=O)c2cc(-c3ccc(C#N)cc3)nn21` (stereo not shown) [Compound I-0201], for which the IC50 was in the range of 10 to 100 nM.

For `CCCCC1CN(Cc2ccc(C#N)cc2)C(=O)c2cc(C3=CCC(C(F)(F)F)CC3)nn21` (stereo not shown) [Compound I-0276], the IC50 fell in the range of 100 to 1000 nM. With `N#Cc1ccc(CN2CC(CC(F)(F)C(F)(F)C(F)(F)F)n3nc(-c4ccc(Cl)cc4)cc3C2=O)cc1` (stereo not shown) [Compound I-0186], the IC50 was no less than 1000 nM.

As to `CCCCC1CN(Cc2ccc(C#N)cc2)C(=O)c2cc(-c3ccc(Cl)cc3C#N)nn21` (stereo not shown) [Compound I-0280], the 50% inhibitory concentration (IC50) was in the range of 10 to 100 nM. For the molecule `CC(=O)Nc1cc(OC(F)(F)F)ccc1-c1cc2n(n1)[C@@H](C)CN(Cc1ccc(C#N)cc1)C2=O` [Compound I-0334], the IC50 was less than 10 nM.

Turning to `CCCCC1CN(Cc2ccc(C#N)cc2)C(=O)c2cc(-c3ccc(Cl)cc3C=O)nn21` (stereo not shown) [Compound I-0204], the concentration for half-maximal inhibition (IC50) was in the range of 10 to 100 nM. Turning to `CCCCC1CN(Cc2ncco2)C(=O)c2cc(-c3ccc(Cl)cc3)nn21` (stereo not shown) [Compound I-0260], the IC50 fell in the range of 100 to 1000 nM. `CCCCCC1CN(CC(=O)N2CCCCC2C(=O)N2CCCCC2)C(=O)c2cc(-c3ccc(Cl)cc3)nn21` (stereo not shown) [Compound I-0041]: the IC50 lay within 10 to 100 nM.

With `CCCCC1CN(Cc2ccc(C#N)cc2)C(=O)c2cc(-c3ccc(Cl)cc3CC#N)nn21` (stereo not shown) [Compound I-0293], the half-inhibitory concentration (IC50) lay in the range of 100 to 1000 nM. Then `CCCCC1CN(Cc2ccc(C#N)cc2)C(=O)c2cc(N3CCC(C(F)(F)F)CC3)nn21` (stereo not shown) [Compound I-0305], with 100 to 1000 nM; and `C[C@H]1CN(CC(=O)N2CCCC2)C(=O)c2cc(-c3ccc(Cl)cc3)nn21` [Compound I-0154], with no less than 1000 nM; and `O=C(O)C1CCN(C(=O)CN2CC(COCC(F)(F)F)n3nc(-c4ccc(Cl)cc4)cc3C2=O)CC1` (stereo not shown) [Compound I-0318], with less than 10 nM. Take `CCCCC1CN(CC(=O)N2CCCC[C@H]2C)C(=O)c2cc(-c3ccc(Cl)cc3)nn21` (stereo partly shown) [Compound I-0241]: the concentration for half-maximal inhibition (IC50) lay in the range of 100 to 1000 nM. The figure for `CCCCCC1CN(Cc2ccc(CO)cc2)C(=O)c2cc(-c3ccc(Cl)cc3)nn21` (stereo not shown) [Compound I-0145] is 100 to 1000 nM. Turning to `CCCCCC1CN(CC(=O)N2CCC(C(=O)O)C2)C(=O)c2cc(-c3ccc(Cl)cc3)nn21` (stereo not shown) [Compound I-0066], the IC50 was in the range of 10 to 100 nM.

As for `CCCCC1CN(Cc2ccc(C#N)cc2)C(=O)c2cc(-c3ccc(C(F)(F)F)cc3)nn21` (stereo not shown) [Compound I-0191], the IC50 was in the range of 100 to 1000 nM. The figure for `CCCCCC1CN(c2cccc(CC(=O)O)c2)C(=O)c2cc(-c3ccc(Cl)cc3)nn21` (stereo not shown) [Compound I-0202] is no less than 1000 nM. Regarding `CC(C)Nc1cc(Cl)ccc1-c1cc2n(n1)[C@@H](C)CN(Cc1ccc(C#N)cc1)C2=O` [Compound I-0349], the 50% inhibitory concentration (IC50) is 100 to 1000 nM. For the molecule `CCOC(=O)CN1CC(C)(C)n2nc(-c3ccc(Cl)cc3)cc2C1=O` [Compound I-0014], the concentration for half-maximal inhibition (IC50) is no less than 1000 nM. Regarding `CCCCCC1CN(CC(=O)N2CCCC[C@@H]2C)C(=O)c2cc(-c3ccc(Cl)cc3)nn21` (stereo partly shown) [Compound I-0082], the IC50 lay within 10 to 100 nM.

Turning to `C[C@H]1CN(Cc2ccc(C#N)cc2)C(=O)c2cc(-c3ccc(Cl)cc3Br)nn21` [Compound I-0326], the half-maximal inhibitory concentration (IC50) is no less than 1000 nM.

With `CCCCCC1CN(CC(=O)N2CCOCC2)C(=O)c2cc(-c3ccc(Cl)cc3)nn21` (stereo not shown) [Compound I-0101], the IC50 fell in the range of 100 to 1000 nM. Turning to `CCCCC1CN(CC2CNC(=O)O2)C(=O)c2cc(-c3ccc(Cl)cc3)nn21` (stereo not shown) [Compound I-0266], the IC50 is 10 to 100 nM. Turning to `CCCCC1CN(Cc2ncn(C)n2)C(=O)c2cc(-c3ccc(Cl)cc3)nn21` (stereo not shown) [Compound I-0259], the IC50 is 100 to 1000 nM. Then `CCCCCC1CN(CC(=O)N(C)c2ccc(C(=O)O)cc2)C(=O)c2cc(-c3ccc(Cl)cc3)nn21` (stereo not shown) [Compound I-0118], with no less than 1000 nM; and `CCCCCC1CN(CC(=O)N2CCC(C(N)=O)CC2)C(=O)c2cc(-c3ccc(Cl)cc3)nn21` (stereo not shown) [Compound I-0033], with no less than 1000 nM; and `CCCCCC1CN(Cc2ccc(S(C)(=O)=O)cc2)C(=O)c2cc(-c3ccc(Cl)cc3)nn21` (stereo not shown) [Compound I-0141], with 100 to 1000 nM. As to `CC(=O)Nc1cc(OC(F)(F)F)ccc1-c1cc2n(n1)[C@@H](C)CN(Cc1cccc(C(=O)O)c1)C2=O` [Compound I-0345], the IC50 was less than 10 nM. For `CCCCC1CN(Cc2ccc(C#N)cc2)C(=O)c2cc(N3[C@@H]4CC[C@H]3CC(F)(F)C4)nn21` (stereo partly shown) [Compound I-0307], the IC50 is no less than 1000 nM.

For `CCCCC1CN(C2CCCCC2=O)C(=O)c2cc(-c3ccc(Cl)cc3)nn21` (stereo not shown) [Compound I-0263], the IC50 was 100 to 1000 nM. Consider `CCCC1CN(Cc2ccc(C#N)cc2)C(=O)c2cc(-c3ccc(Cl)cc3)nn21` (stereo not shown) [Compound I-0181], for which the half-maximal inhibitory concentration (IC50) lay in the range of 100 to 1000 nM. `CCCCC1CN(C(C(C)=O)c2ccccc2)C(=O)c2cc(-c3ccc(Cl)cc3)nn21` (stereo not shown) [Compound I-0262]: the 50% inhibitory concentration (IC50) is no less than 1000 nM. Regarding `CCCCCC1CN(CC(=O)NCCCN(C)C)C(=O)c2cc(-c3ccc(Cl)cc3)nn21` (stereo not shown) [Compound I-0104], the IC50 is no less than 1000 nM. Then `CC(=O)Nc1cc(C#N)ccc1-c1cc2n(n1)C(CC(F)(F)F)CN(Cc1ccc(C#N)cc1)C2=O` (stereo not shown) [Compound I-0370], with 10 to 100 nM; and `CCCCC1CN(Cc2ccc(C#N)cc2)C(=O)c2cc(-c3ccc(Cl)cc3CO)nn21` (stereo not shown) [Compound I-0207], with 10 to 100 nM; and `CCCCCC1CN(CC(=O)N2CCCCCC2)C(=O)c2cc(-c3ccc(Cl)cc3)nn21` (stereo not shown) [Compound I-0098], with 100 to 1000 nM. Then `CCCCCC1CN(CC(=O)N2CCCC[C@H]2C)C(=O)c2cc(-c3ccc(Cl)cc3)nn21` (stereo partly shown) [Compound I-0076], with 100 to 1000 nM. The figure for `CCCCCC1CN(Cc2ccc(CC(=O)O)cc2)C(=O)c2cc(-c3ccc(Cl)cc3)nn21` (stereo not shown) [Compound I-0124] is less than 10 nM; for `O=C(O)C1CCN(C(=O)CN2C(=O)c3cc(-c4ccc(Cl)cc4)nn3C3COCC32)CC1` (stereo not shown) [Compound I-0028] it is no less than 1000 nM; for `CCCCCC1CN(CC(=O)Nc2ccccc2)C(=O)c2cc(-c3ccc(Cl)cc3)nn21` (stereo not shown) [Compound I-0087] it is no less than 1000 nM. Regarding `N#Cc1ccc(CN2CC(COCC(F)(F)C(F)F)n3nc(-c4ccc(Cl)cc4)cc3C2=O)cc1` (stereo not shown) [Compound I-0190], the half-maximal inhibitory concentration (IC50) was 10 to 100 nM. Then `CCCCC1CN(Cc2ccc(C#N)cc2)C(=O)c2cc(-c3ccc(Cl)cc3)nn21` (stereo not shown) [Compound I-0183], with 10 to 100 nM. As to `CCCCCC1CN(Cc2cccc(C(=O)N3CCC(O)CC3)c2)C(=O)c2cc(-c3ccc(Cl)cc3)nn21` (stereo not shown) [Compound I-0137], the IC50 was 10 to 100 nM. In the case of `CCCCCC1CN(CC(=O)N2CCC(CC(C)C)C2)C(=O)c2cc(-c3ccc(Cl)cc3)nn21` (stereo not shown) [Compound I-0039], the half-inhibitory concentration (IC50) is 100 to 1000 nM. Regarding `CCCCCC1CN(c2ccncc2)C(=O)c2cc(-c3ccc(Cl)cc3)nn21` (stereo not shown) [Compound I-0200], the IC50 was no less than 1000 nM. On to `CC(=O)Nc1cc(Cl)ccc1-c1cc2n(n1)[C@@H](C)CN(C[C@@H]1CNC(=O)O1)C2=O` [Compound I-0317], for which the IC50 was 100 to 1000 nM. Turning to `CC(C)(O)CNC(=O)CN1CC(COCC(F)(F)F)n2nc(-c3ccc(Cl)cc3)cc2C1=O` (stereo not shown) [Compound I-0315], the concentration for half-maximal inhibition (IC50) lay within 100 to 1000 nM.

On to `CCCCCC1CN(CC(=O)NCCC(=O)O)C(=O)c2cc(-c3ccc(Cl)cc3)nn21` (stereo not shown) [Compound I-0044], for which the IC50 was 10 to 100 nM. For the molecule `CCOC(=O)C1CCN(C(=O)CN2CC(C)(C)n3nc(-c4ccc(Cl)cc4)cc3C2=O)CC1` [Compound I-0015], the IC50 is no less than 1000 nM.
